Laboratory results published in US8589175B2, “Optimization and individualization of medication selection and dosing” (Children's Hospital Medical Center, priority 2005, dated 2013).
Like-named read-outs stand apart in the source and are kept apart here.

How the values were obtained:
CYP2C19 = experiment: dosing recommendation per CYP2C19 metabolizer subgroup as percentage of usual population dose (Equations 4-6); details: human
Excerpt: Assuming the goal is to maintain the same AUC for all three subpopulations of patients, the following subpopulation dosing relationships hold: DPM=DEM*(AUCEM/AUCPM) OR DPM=DEM*R if R=(AUCEM/AUCPM) (Equation 2) DIM=DEM*(AUCEM/AUCIM) OR DIM=DEM*S if S=(AUCEM/AUCIM) (Equation 3)
By substituting equations 2 and 3 into equation 1, and then rearranging the equation to solve for the percent dose adjustment needed for each subgroup relative to the population dose: DEM(%)=100/(fEM+fIM*S+fPM*R) (Equation 4) DPM(%)=R*DEM (Equation 5) DIM(%)=S*DEM (Equation 6) Equations 4, 5, and 6 show how the dosing for the more homogeneous subgroups is determined and how the dosing results are expressed as a fraction of the clinician's usual heterogeneous whole group dosages. Determining “Minimal Dose Adjustment Units”
Example: The approach in the previous section leads to individualized initial drug dose recommendations for each of the 3 subgroups (extensive, poor and intermediate metabolizers). Each subgroup represents a specific number of functional alleles for the specific DME (extensive metabolizers have 2 functional, intermediate metabolizers have 1 functional and poor metabolizers have 0 functional). The resultant dosing recommendations are expressed as percentages of the clinician's usual starting dose. It is possible to investigate the effect of increasing numbers of non-functional alleles using these new dosing recommendations. For example, if DRX % is the dosing recommendation for subgroup X expressed as a percentage of the clinician's usual starting dose then the following are true: Effect of […] 1 non-functional allele=(DREM %−DRIM %)/DREM % Effect of 2 non-functional allele=(DREM %−DRPM %)/DREM % Below is a spreadsheet (Table 3) that examines this for CYP2D6, CYP2C19 and CYP2C9. […] 2C9 has 2 MDA units per non-functional allele.

[1] = CYP2D6, ratio of the two effects
[2] = CYP2D6 extensive metabolizers, percent of usual dose
[3] = CYP2D6 intermediate metabolizers, percent of usual dose
[4] = CYP2D6 poor metabolizers, percent of usual dose
[5] = CYP2D6 ultrarapid metabolizers, percent of usual dose

Structure (SMILES)	1 al (effect of 1 non-functional allele) (CYP2D6; human)	2 al (effect of 2 non-functional alleles) (CYP2D6; human)	2 al/1 al (CYP2D6; human)	EM (%) dosing recommendation (CYP2D6; human)	IM (%) dosing recommendation (CYP2D6; human)	PM (%) dosing recommendation (CYP2D6; human)	UM (%) dosing recommendation (CYP2D6; human)	also measured
CNCCC=C1c2ccccc2CCc2ccccc21 [nortriptyline]	0.19	0.55	2.87	119%	96%	53%	152%	–
O=C1CCc2ccc(OCCCCN3CCN(c4cccc(Cl)c4Cl)CC3)cc2N1 [aripiprazole]	–	–	–	–	–	–	–	1 al (effect of 1 non-functional allele) (CYP2D6; CYP2D6, (DREM%-DRIM%)/DREM%): 0.19; 2 al (effect of 2 non-functional alleles) (CYP2D6; CYP2D6, (DREM%-DRPM%)/DREM%): 0.38; 2 al/1 al (CYP2D6; [1]): 2.05; EM (%) dosing recommendation (CYP2D6; [2]): 113%; IM (%) dosing recommendation (CYP2D6; [3]): 92%; PM (%) dosing recommendation (CYP2D6; [4]): 70%; UM (%) dosing recommendation (CYP2D6; [5]): 134%
CNCCCC12CCC(c3ccccc31)c1ccccc12 [maprotiline]	0.35	0.72	2.02	127%	82%	36%	173%	1 al (effect of 1 non-functional allele) (CYP2C19): 0.00; 2 al (effect of 2 non-functional alleles) (CYP2C19): 0.00; IM (%) dosing recommendation (CYP2C19): 100%; PM (%) dosing recommendation (CYP2C19): 100%; UM (%) dosing recommendation (CYP2C19): 100%
CN1CCN2c3ccccc3Cc3ccccc3C2C1 (stereo not drawn) [mianserin]	0.21	0.35	1.67	114%	90%	74%	134%	1 al (effect of 1 non-functional allele) (CYP2C19): 0.00; 2 al (effect of 2 non-functional alleles) (CYP2C19): 0.00; IM (%) dosing recommendation (CYP2C19): 100%; PM (%) dosing recommendation (CYP2C19): 100%; UM (%) dosing recommendation (CYP2C19): 100%
O=C(NCCN1CCOCC1)c1ccc(Cl)cc1 [moclobemide]	−0.16	−0.32	–	92%	107%	121%	77%	1 al (effect of 1 non-functional allele) (CYP2C19): 0.25; 2 al (effect of 2 non-functional alleles) (CYP2C19): 0.51; 2 al/1 al (CYP2C19): 2.00; IM (%) dosing recommendation (CYP2C19): 82%; PM (%) dosing recommendation (CYP2C19): 54%; UM (%) dosing recommendation (CYP2C19): 110%
CN1CCN2c3ncccc3Cc3ccccc3C2C1 (stereo not drawn) [mirtazapine]	−0.02	−0.03	–	99%	101%	102%	97%	–
CC(CN(C)C)CN1c2ccccc2CCc2ccccc21 (stereo not drawn) [trimipramine]	0.31	0.72	2.35	131%	91%	37%	178%	1 al (effect of 1 non-functional allele) (CYP2C19): 0.53; 2 al (effect of 2 non-functional alleles) (CYP2C19): 0.59; 2 al/1 al (CYP2C19): 1.12; IM (%) dosing recommendation (CYP2C19): 62%; PM (%) dosing recommendation (CYP2C19): 45%; UM (%) dosing recommendation (CYP2C19): 111%
COc1ccc(C(CN(C)C)C2(O)CCCCC2)cc1 (stereo not drawn) [venlafaxine]	–	–	–	–	–	–	–	1 al (effect of 1 non-functional allele) (CYP2D6; CYP2D6, (DREM%-DRIM%)/DREM%): 0.21; 2 al (effect of 2 non-functional alleles) (CYP2D6; CYP2D6, (DREM%-DRPM%)/DREM%): 0.38; 2 al/1 al (CYP2D6; [1]): 1.78; EM (%) dosing recommendation (CYP2D6; [2]): 109%; IM (%) dosing recommendation (CYP2D6; [3]): 86%; PM (%) dosing recommendation (CYP2D6; [4]): 68%; UM (%) dosing recommendation (CYP2D6; [5]): 130%
COc1ccc2c(c1)N(C[C@H](C)CN(C)C)c1ccccc1S2 [levomepromazine]	0.00	0.00	–	100%	100%	100%	100%	–
CN(C)CCCC1(c2ccc(F)cc2)OCc2cc(C#N)ccc21 (stereo not drawn) [citalopram]	0.01	0.03	–	101%	100%	98%	102%	1 al (effect of 1 non-functional allele) (CYP2C19): 0.22; 2 al (effect of 2 non-functional alleles) (CYP2C19): 0.44; 2 al/1 al (CYP2C19): 1.96; IM (%) dosing recommendation (CYP2C19): 84%; PM (%) dosing recommendation (CYP2C19): 61%; UM (%) dosing recommendation (CYP2C19): 108%
CNCCCN1c2ccccc2CCc2ccccc21 [desipramine]	0.34	0.66	1.98	125%	83%	42%	167%	–
Cl.Cl.OCCN1CCN(CCC=C2c3ccccc3Sc3ccc(C(F)(F)F)cc32)CC1 (mixture of isomers) [flupentixol]	–	–	–	–	–	–	–	1 al (effect of 1 non-functional allele) (CYP2D6): 0.26; 2 al (effect of 2 non-functional alleles) (CYP2D6): 0.36; 2 al/1 al (CYP2D6): 1.40; EM (%) dosing recommendation (CYP2D6): 116%; IM (%) dosing recommendation (CYP2D6): 86%; PM (%) dosing recommendation (CYP2D6): 74%; UM (%) dosing recommendation (CYP2D6): 146%
CN1CCN(CCCN2c3ccccc3Sc3ccccc32)CC1 [perazine]	0.17	0.22	1.26	110%	91%	86%	117%	–
Fc1ccc([C@@H]2CCNC[C@H]2COc2ccc3c(c2)OCO3)cc1 [paroxetine]	–	–	–	–	–	–	–	1 al (effect of 1 non-functional allele) (CYP2D6; CYP2D6, (DREM%-DRIM%)/DREM%): 0.21; 2 al (effect of 2 non-functional alleles) (CYP2D6; CYP2D6, (DREM%-DRPM%)/DREM%): 0.42; 2 al/1 al (CYP2D6; [1]): 2.00; EM (%) dosing recommendation (CYP2D6; [2]): 114%; IM (%) dosing recommendation (CYP2D6; [3]): 90%; PM (%) dosing recommendation (CYP2D6; [4]): 66%; UM (%) dosing recommendation (CYP2D6; [5]): 138%
O=c1[nH]c2ccccc2n1C1CCN(CCCC(c2ccc(F)cc2)c2ccc(F)cc2)CC1 [pimozide]	0.03	0.07	–	102%	99%	95%	105%	–
OCCN1CCN(CCCN2c3ccccc3Sc3ccc(Cl)cc32)CC1 [perphenazine]	–	–	–	–	–	–	–	1 al (effect of 1 non-functional allele) (CYP2D6; CYP2D6, (DREM%-DRIM%)/DREM%): 0.38; 2 al (effect of 2 non-functional alleles) (CYP2D6; CYP2D6, (DREM%-DRPM%)/DREM%): 0.76; 2 al/1 al (CYP2D6; [1]): 2.00; EM (%) dosing recommendation (CYP2D6; [2]): 129%; IM (%) dosing recommendation (CYP2D6; [3]): 80%; PM (%) dosing recommendation (CYP2D6; [4]): 31%; UM (%) dosing recommendation (CYP2D6; [5]): 178%
O=c1n(CCCN2CCN(c3cccc(Cl)c3)CC2)nc2ccccn12 [trazadone]	0.15	0.31	2.00	110%	93%	76%	127%	–
CN(C)CCCN1c2ccccc2CCc2ccc(Cl)cc21 [clomipramine]	–	–	–	–	–	–	–	1 al (effect of 1 non-functional allele) (CYP2C19): 0.28; 2 al (effect of 2 non-functional alleles) (CYP2C19): 0.44; IM (%) dosing recommendation (CYP2C19): 79%; UM (%) dosing recommendation (CYP2C19): 110%
OCCN1CCN(CC/C=C2/c3ccccc3Sc3ccc(Cl)cc32)CC1 [zuclopenthixol]	0.22	0.46	2.04	116%	90%	63%	142%	–
Cc1nc2n(c(=O)c1CCN1CCC(c3noc4cc(F)ccc34)CC1)CCCC2 [risperidone]	0.09	–	–	–	–	–	–	–
CCc1nn(CCCN2CCN(c3cccc(Cl)c3)CC2)c(=O)n1CCOc1ccccc1 [nefazodone]	0.08	0.14	1.88	105%	97%	90%	113%	–
O=C(CCCN1CCC(O)(c2ccc(Cl)cc2)CC1)c1ccc(F)cc1 [haloperidol]	0.09	0.29	3.10	107%	97%	76%	126%	–
